Data: patent US20220073448A1, “METHOD FOR SYNTHESIZING CARBOXY-CONTAINING ANTHRAQUINONE DERIVATIVE, CARBOXY-CONTAINING ANTHRAQUINONE DERIVATIVE PREPARED THEREBY, AND BATTERY SYSTEM COMPRISING SAME” (CHINA SALT JINTAN CO., LTD., priority 2019, published 2022)

assay: Cyclic voltammetry (CV), three-electrode system, glassy carbon working electrode, Ag/AgCl reference electrode; format: physicochemical; details: 2 mM in potassium hydroxide aqueous solution at pH=14, scan rate 20 mV/s, in V
Text: In the cyclic voltammetry test of the electric pair, the CS Series electrochemical workstation from Wuhan Corrtest Instruments Corp., Ltd. was used to test the electrochemical performance of the organic electric pair with a three-electrode system. The working electrode was a glassy carbon electrode (Tianjin IDA Hengsheng Co.), the reference electrode was a Ag/AgCl electrode, the counter electrode was a platinum electrode, the scan range of the electric pair of positive electrode and negative electrode was −1.0 to 1.0 V, and the scan rate was 20 mV·s^−1.
A 1-[N-(5-carboxybutylacyl)]aminoanthraquinone solution (at a concentration of 2 mM, in a potassium hydroxide aqueous solution at pH=14) was investigated by cyclic voltammetry (CV).
A 1-[N-(6-carboxypentylacyl)]aminoanthraquinone solution (at a concentration of 2 mM, in a potassium hydroxide aqueous solution at pH=14) was investigated by cyclic voltammetry (CV).
A 1-[N-(7-carboxyhexylacyl)]aminoanthraquinone solution (at a concentration of 2 mM, in a potassium hydroxide aqueous solution at pH=14) was investigated by cyclic voltammetry (CV).
A 1-[N-(8-carboxyheptylacyl)]aminoanthraquinone solution (at a concentration of 2 mM, in a potassium hydroxide aqueous solution at pH=14) was investigated by cyclic voltammetry (CV).

| Molecule | redox peak in CV curve | redox peak in CV curve (more negative) |
| --- | --- | --- |
| 1-[N-(7-carboxyhexylacyl)]aminoanthraquinone | ~−0.60 | ~−0.67 |
| O=C(O)CCCCC(=O)Nc1cccc2c1C(=O)c1ccccc1C2=O [1-[N-(5-carboxybutylacyl)]aminoanthraquinone] | ~−0.60 | ~−0.65 |
| O=C(O)CCCCC(=O)Nc1cccc2c1C(=O)c1ccccc1C2=O [1-[N-(6-carboxypentylacyl)]aminoanthraquinone] | ~−0.60 | ~−0.66 |
| O=C(O)CCCCCCCC(=O)Nc1cccc2c1C(=O)c1ccccc1C2=O [1-[N-(8-carboxyheptylacyl)]aminoanthraquinone] | ~−0.60 | ~−0.68 |
